What all share (assay type): in vivo
The subject of test [1] is Honey bee foragers (Apis mellifera scutellata). Kind of test: Classical conditioning of PER in honey bees: rutin, kaempferol, p-coumaric acid vs fipronil. To be noted: for latency of response relative to Control bees: Dunnett's method; for learning score relative to Control bees: score 0-10, 1 μM rutin, 131 μM kaempferol, 200 μM p-coumaric acid or Mix twice a day for three days, 228 nM fipronil 10 μL three hours before training. Here is the method:
Honey bee foragers (Apis mellifera scutellata) were captured from established hives at the Apiary of the Universidad del Rosario (Bogota, Colombia) between 08:00 h and 10:00 h. Bees were ice-anesthetized and harnessed in plastic tubes and maintained under laboratory conditions for the duration of the experiment (five days). Food was provided twice a day in a volumen of 10 μL and varied in composition according to experimental treatments.
Bees were randomly allocated to one of the following treatments administered twice a day for three consecutive days (all concentrations are final):
Control: 1M sucrose water (10 μL)
Rut: 1 μM rutin (Sigma-Aldrich: R5143)-1M sugar water (10 μL)
Kaemp:131 μM kaempferol (Sigma-Aldrich:K0133)+1M sugar water (10 μL)
p-Cou A: 200 μM p-coumaric acid (Sigma-Aldrich:C9008) diluted in 1M sugar water (10 μL)
Mix: 1 μM rutin, 131 μM kaempferol and 200 μM p-Coumaric acid): Bees fed with composition diluted in 1M sugar water (10 μL) fed twice a day for three days
On the fourth day, bees were randomly assigned to one of two treatments three hours before training:
Fipronil: 10 μL of 228 nM Fipronil (Astuto Invesa) in 1M sucrose water
Sucrose solution: 10 μL 1M sucrose water
Thus, bees belong to one of ten treatments: Control, Kaemp, Rut, p-Cou A, Mix, Fipro, Kaemp+Fipro, Rut+Fipro, p-Cou A+Fipro, Mix+Fipro.
Bees were trained using classical conditioning of the proboscis extension response (PER). Briefly, bees received a soft current of clean air for 15 seconds to allow bees to accommodate. Then a soft current of 1-hexanol (Sigma-Aldrich: 471402) was injected for 10 seconds. Six seconds after injection of 1-hexanol, one of the antennae was stimulated with sugar water (1.5M), which leads to the reflexive extension of the proboscis, and the bee was allowed to drink for 4 seconds. Thus, the reward and the stimulus overlapped for four seconds. This sequence, recognized as a training trial, was repeated eleven times. Time was determined using a metronome (2 Hz). Memory retention was tested 24 hours after the eleven training trials. […] 12 bees were trained each session. Training was conducted by an experimenter blind to treatment.
(§1) Learning for each individual was quantified as the number of conditioned PER responses across the trials. Thus, for each bee a learning score between zero and ten (0-10) was recorded.
(§2) Multiple comparisons were then run comparing learning score relative to Control bees using a non-parametric one or two-tailed Steel Method depending upon predictions. These comparisons informed us about the predicted impairment produced by the insecticides, the predicted innocuous effect of the flavonoid and the potential level of protection. Error due to multiple comparisons was controlled using the False Discovery Rate method (FDR-two stage sharpened method). In all cases corrected p-values (q-values) are presented.
(§3) Memory retention was quantified as a nominal variable (yes/no). Data were compared across treatments using a Chi-square test, followed by multiple comparisons of all treatments vs. Control. Error due to multiple comparisons was controlled using the FDR as indicated above. In all cases corrected p-values (q values) are presented.
Latency was quantified as a continuous variable between 0.5 s and 10 s. Data were compared across treatments using an ANOVA following a Log transformation to normalize the distribution (Shapiro-Wilk W Test after log transformation: p>0.05 for all treatments for the null hypothesis that data is from a normal distribution), followed by multiple comparisons between all treatments and the Control group (Dunnett's method). Error due to multiple comparisons was controlled using the FDR method as indicated above. In all cases corrected p-values (q-values) are presented.

Test [2] has the same test system. The test is described as follows: Sucrose responsiveness (sensory sensitivity) of honey bees: flavonoids vs deltamethrin. To be noted: for sensitivity (sucrose responsiveness, total PER score) relative to Control bees: honey bees, rutin 1 μM, kaempferol 131.7 μM or both for one day, 17.81 μM deltamethrin next day, pooled score. Here is the method:
Honey bee foragers (Apis mellifera scutellata) were captured from established hives at the Apiary of the Universidad del Rosario (Bogota, Colombia) between 08:00 h and 10:00 h. Bees were ice-anesthetized and harnessed in plastic tubes and maintained under laboratory conditions for the duration of the experiment (three days).
On the first day, bees were randomly allocated to one of four treatments administered as two doses (morning: 20 μL; afternoon:10 μL): i) Control (1M sucrose solution), ii) Rutin 1 μM (Sigma-Aldrich R5143), iii) Kaempferol 131.7 μM (Sigma-Aldrich K0133), iv) Rutin-Kaempferol composition (final concentration of […] rutin and 131.7 μM kaempferol). All solutions were diluted in 1M sucrose solution to the concentrations described above. The next day, bees from each group were randomly assigned to one of two treatments: […] of 1M sucrose solution or 17.81 μM deltamethrin (Dinastia Bayer). Thus, bees belonged to one of eight treatments: i) Sucrose water (Control), ii) Rutin (Rut), iii) Kaempferol (Kaemp), iv) Kaempferol+Rutin (Kaemp+Rut), v) Deltamethrin (Delta), vi) Rutin+Deltamethrin (Rut+Delta), vii) Kaempferol+Deltamethrin (Kaemp+Delta), viii) Kaempferol+Rutin+Deltamethrin ((Kaemp+Rut)+Delta). All solutions were diluted in 1M sugar water to the concentrations described above.
Sensory sensitivity was evaluated using responsiveness to sucrose, a proxy of resource exploitation by foragers. On the second day, bees of the eight treatments described above were tested five times for their response threshold (0 h, 1 h, 2 h, 3 h and 4 h). The first measure (0 h) was done prior to pesticide administration. Bees were tested with an ascending sucrose concentration of 0.1, 0.3, 1, 3, 10 and 30% (w/w). Between each concentration, the bees were presented with pure water as a control for potential sensitization or habituation (Pankiw et al., Behav Ecol Sociobiol (2000) 47:265-267). The inter-trial time between the presentation of each sucrose concentration was at least 4 minutes. For each presentation, the reflexive extension of the proboscis (tongue) of the bee, after antennal stimulation with the solution was recorded. After the last measure (4 h), bees were fed with 10 μL of 1M sucrose solution and maintained until the next day for a final test (24 hours after pesticide administration).
For each bee, a responsiveness score was determined (0-7) 0 h, 1 h, 2 h, 3 h, 4 h and 24 h, and a pooled scored (0-42). Normal distribution of the scores was tested using Shapiro-Wilk W Test for the null hypothesis that data is from a Normal distribution. […] Thus, non-parametric tests were used for comparisons across treatments and for multiple comparisons. Overall changes of responses across different concentrations were evaluated using repeated-measured MANOVA. Error associated with multiple comparisons was controlled using the Two-stage sharpened False Discovery Rate, and corrected p-values (q-values) are presented. Data were explored for outliers using a single run of Robust Fit outliers test. All analyses were conducted using JMP v.14 (SAS Institute Inc.)

Test [3] has as its system bumblebee Bombus impatiens. The test is described as follows: Olfactory conditioning of PER in bumblebees: self-administered rutin vs chronic fipronil. The procedure:
One colony of the bumblebee Bombus impatiens (Koppert Inc) was kept in laboratory conditions. Bees received pollen inside the nests and foraged to a 1M sugar-water feeder outside of the nest. Bees were collected while on the feeder and iced anesthetized to then be randomly assigned to one of four plastic containers where self-administration of one of two solutions was allowed to 10 bees out of two feeders (glass vials with 500 μL of solution each): i) 1 M sucrose water or ii) 1 μM Rutin (Sigma-Aldrich R5143) diluted in 1M sucrose water. Feeders were refilled each day for three days. On the night of the third day, one of the vials was replaced by a new one with one of two solutions: i) 1 M sucrose water or ii) 1M sucrose water+6 nM fipronil. Feeders were refilled each day for three more days, thus providing a chronic exposure to fipronil. On the night of the […] day, bees were iced anesthetized and yolked restrained in plastic pipettes. Thus, bees belonged to one of four treatments:
Control: self-administered sucrose water for six days
Rut: self-administered rutin for six days
Fipro: self-administered sucrose water for three days followed by three days of self-administered sucrose water (one feeder) and fipronil (one feeder).
Rut+Fipro: self-administered rutin for three days followed by three days of self-administered rutin (one feeder) and fipronil (one feeder).
(§4) All bees were blind-trained using olfactory conditioning of the proboscis extension response (PER). Briefly, bees were exposed to a presentation of 1-nonanol (Sigma-Aldrich) for 10 s. After 7 s of the onset of the odor presentation, the antenna was stimulated with 1.5 M sugar-water to elicit the PER. Following the PER, the bee was allowed to drink sugar-water for 3 s. Each paired presentation was considered a training trial and each individual received eleven training trials with an average intertrial interval of 10 minutes. After training, all bees were fed 20 μL of 1M sugar water and maintained in plastic boxes for 24 h until the retention test. […] Twenty-four hours after the last training trial the bees were presented with the conditioned odor for 10 s.
as §1
Multiple comparisons were then run comparing learning score relative to Control bees using a non-parametric one or two-tailed Steel Method depending upon predictions. These comparisons informed us about the predicted impairment produced by the fipronil, the predicted innocuous effect of the rutin and the potential level of protection. Error due to multiple comparisons was controlled using the False Discovery Rate method (FDR-two stage sharpened method). In all cases corrected p-values (q-values) are presented.
as §3
Latency was quantified as a continuous variable between 0.5 s and 10 s. […]

In test [4] the test system is bumblebee Bombus impatiens. Kind of test: Olfactory conditioning of PER in bumblebees: ad libitum rutin vs acute imidacloprid or fipronil. The procedure:
One colony of the bumblebee Bombus impatiens (Koppert Inc) was kept in laboratory conditions. Bees received pollen inside the nests and foraged to a 1M sugar-water feeder outside of the nest. Bees were collected while on the feeder and iced anesthetized to then be randomly assigned to one of two plastic containers where ad libitum self-administration of one of two solutions was allowed to 10 bees: i) 1 M sucrose water or ii) 1 μM Rutin (Sigma-Aldrich R5143) diluted in 1M sucrose water. On the night of the third day, the feeder was removed to starve the bees. On the fourth day, the bees were iced anesthetized and yolked restrained in plastic pipettes. Bees were maintained in the pipettes for the rest of the experiment (two days). One hour after harnessing, the bees were randomly assigned to one of three treatments: i) 20 μL of 1M sucrose water, ii) 20 μL of 1M sucrose water+5 nM imidacloprid, iii) 20 μL of 1M sucrose water+6 nM fipronil. Thus, overall bees belonged to one of six treatments:
Control: ad libitum sucrose water for three days and 20 μL of sucrose water before training
Rutin: ad libitum 1 μM Rutin for three days and 20 μL of sucrose water before training
Imid: ad libitum sucrose water for three days and 20 μL of 5 nM Imidacloprid in 1M sugar water 2 hours before training
Rutin+Imid: ad libitum 1 μM Rutin for three days and 20 μL of 5 nM Imidacloprid in 1M sugar water 2 hours before training
Fipronil: ad libitum sucrose water for three days and 20 μL of 5 nM fipronil in 1M sucrose water 2 hours before training
Rutin+Fipronil: ad libitum […] Rutin for three days and 20 μL of 6 nM fipronil in 1M sugar water 2 hours before training
as §4, §1, §2, §3
Latency was quantified as a continuous variable between 0.5 s and 10 s. Data were compared across treatments using an ANOVA following a Log transformation to normalize the distribution (Shapiro-Wilk W Test after log transformation: p>0.05 for all treatments for the null hypothesis that data is from a normal distribution), followed by multiple comparisons between all treatments and the Control group. Error due to multiple comparisons was controlled using the FDR method as indicated above. […]

Setting [5] is: bumblebees, 24 h retention test.

Regarding `O=c1c(O)c(-c2ccc(O)cc2)oc2cc(O)cc(O)c12` [Kaemp, Kaempferol], the “latency of response relative to Control bees” value in test [1] is given as “not significantly different from Control”. In addition, in test [1] (honey bees), the “learning score relative to Control bees” value is recorded as “not significantly different from Control bees”. The “sensitivity (sucrose responsiveness, total PER score) relative to Control bees” value in test [2] was “not significantly affected”.

In the case of `N#Cc1nn(-c2c(Cl)cc(C(F)(F)F)cc2Cl)c(N)c1[S+]([O-])C(F)(F)F` (stereo not shown) [Fipronil], the “odds of remembering for Control bees relative to Fipro bees” value in test [3] (24 h retention) is 8.7 times. Further, the “proportion difference Control-Fipro for a PER response (Adjusted Wald test)” value in test [3] (24 h retention) worked out at 0.48. Moreover, the “bees exhibiting a conditioned response after 24 h” value in test [3] (setting [5]) was 33.3%; in test [4] (setting [5]), 34.6%; in test [1] (honey bees, 24 h retention test), “None”. The “learning score relative to Control bees” value is “significantly lower” in test [3] (bumblebees, score 0-10, self-administered 1 μM rutin six days, 6 nM fipronil feeder for the last three days (chronic)); “significantly lower” in test [4] (bumblebees, score 0-10, ad libitum 1 μM rutin three days, 5 nM imidacloprid or 6 nM fipronil 20 μL 2 hours before training); “significantly lower” in test [1] (honey bees). Moreover, in test [4] (24 h retention), the “odds of remembering for Control bees relative to insecticide bees” value is 3.4 times. In test [4] (24 h retention), the “proportion difference Control minus insecticide group for a PER response (Adjusted Wald test)” value is listed as 0.30. In addition, the “decision-making ratio (latency of response / learning score) relative to Control bees” value in test [4] (bumblebees) is given as “significant increase”. Besides, the “proportion difference Control minus treatment for a PER response (Adjusted Wald test)” value in test [1] (24 h retention) was 0.545.

On to `CC1(C)[C@H](C(=O)O[C@H](C#N)c2cccc(Oc3ccccc3)c2)[C@@H]1C=C(Br)Br` [Deltamethrin], for which the “sensitivity 24 h after administration of the insecticide relative to Control bees” value in test [2] (24 h) was “lowest sensitivity”. Also, the “bees responding to 30% sucrose water” value in test [2] (after 4 hours) is given as “less than 30%”. Besides, in test [2] (after 24 hours), the “improvement in response to 30% sucrose water” value was 10%. The “bees responsive to 30% sucrose-water” value in test [2] (after one hour) is “less than 40%”. Also, in test [2], the “sensitivity (sucrose responsiveness, total PER score) relative to Control bees” value is on record as “significantly lower”.

Take `O=C(O)/C=C/c1ccc(O)cc1` [p-CouA, p-coumaric acid]: the “latency of response relative to Control bees” value in test [1] is “not significantly different from Control”. The “learning score relative to Control bees” value in test [1] (honey bees) was “not significantly different from Control bees”.

Source of the values: patent US20220339178A1, “COMPOSITIONS AND METHODS FOR COGNITIVE PROTECTION OF POLLINATORS AGAINST PESTICIDES” (priority 2019, published 2022).
